Holding throughout (test): NCI tumour cell line growth inhibition, 48 h
Test [1] relates to MDA-MB-231.
Test [2] has as its system UACC-62.
Test [3] relates to T47D.
The subject of test [4] is SF-295.
The test system of test [5] is HOP-62.
Test [6] has as its system MDA-N.
The subject of test [7] is NCI/ADR-RES.
The subject of test [8] is SF-268.
Test [9] concerns HCT-116.
Test [10] deals with Hs-578T.
Test [11] concerns LOX IMVI.
In test [12] the test system is COLO 205.
Test [13] deals with 786-0.
Test [14] has as its system NCI-H522.
The test system of test [15] is OVCAR-5.
In test [16] the test system is K562.
Test [17] relates to A549.
Test [18] relates to SK-MEL-2.
In test [19] the test system is SN12C.
The test system of test [20] is CCRF-CEM.

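Assay format: 96-well plates, 48-hour exposure. Here, GI50 denotes the concentration required for 50% inhibition of growth.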 Active and inactive are the calls of the source. Cut-off read from the data, not from the text of the source: active = GI50 up to about 1.1 µM and inactive = higher.

The record followed here is ChEMBL document CHEMBL1201862, “PubChem BioAssay data set” (2004).

For `CC(C)(C)OCC1NC(=O)[C@@H]2Cc3c([nH]c4ccccc34)C(C3CCCCC3)N2C1=O` (stereo partly specified), the GI50 in test [1] was 17.4 µM (inactive); in test [2], 14.9 µM (inactive); in test [3] it was 20.6 µM (inactive); in [4], 18.2 µM (inactive); in test [5], 16.1 µM (inactive); in test [6] it was 16.7 µM (inactive). Besides, the GI50 is 21.1 µM (inactive) in [7]; 28.8 µM (inactive) in test [8]; 15.3 µM (inactive) in [9]; 20.8 µM (inactive) in test [10]; 16.9 µM (inactive) in test [11]; 20.7 µM (inactive) in test [12]. The GI50 in [13] is 22.5 µM (inactive); in test [14] it was 16.5 µM (inactive); in [15] it was 24.2 µM (inactive); in test [16] it was 27.3 µM (inactive); in test [17], 33.7 µM (inactive); in test [18], 20.7 µM (inactive). Also, in test [19], the GI50 was 19.6 µM (inactive).

As for `O=C(CC(C(=O)c1ccoc1)c1ccco1)c1ccco1` (stereo unspecified), the GI50 is 18.6 µM (inactive) in test [1]; > 100 µM (inactive) in test [2]; > 100 µM (inactive) in [3]; > 100 µM (inactive) in test [4]; > 100 µM (inactive) in test [5]; 29.4 µM (inactive) in [6]. In addition, the GI50 in test [7] is 80.5 µM (inactive); in test [8], > 100 µM (inactive); in test [9], > 100 µM (inactive); in test [10] it was > 100 µM (inactive); in test [11] it was > 100 µM (inactive); in [12], > 100 µM (inactive). For the same compound, the GI50 in [13] was > 100 µM (inactive); in test [20], 24.2 µM (inactive); in [14], > 100 µM (inactive); in test [15] it was > 100 µM (inactive); in test [16] it was > 100 µM (inactive); in test [17] it was 79.6 µM (inactive). For the same compound, the GI50 in test [19] is > 100 µM (inactive).

In the case of `O=C1N/N=C\Nc2ccc(cc2)S(=O)(=O)c2ccc(cc2)/N=C\NNC1=O`, the GI50 in [1], in test [2], in test [3], in [4], in [5] and in test [6] was > 100 µM (inactive) in each case. The GI50 in test [7], in test [8], in [9], in test [10], in [11] and in test [12] was > 100 µM (inactive) in each case. Further, the GI50 in test [13], in [14], in [15], in test [16], in [17] and in test [18] was > 100 µM (inactive) each time. Further, the GI50 in test [19] was > 100 µM (inactive).

As to `CCN(CC)CCn1c2cc3c(cc2c(=O)c2cccnc21)OCO3`, the GI50 is 4.44 µM (inactive) in test [1]; 8.75 µM (inactive) in test [2]; > 10 µM (inactive) in test [3]; 4.71 µM (inactive) in [4]; 3.61 µM (inactive) in test [5]; 8.93 µM (inactive) in test [6]. For the same compound, the GI50 in [7] was 4.93 µM (inactive); in test [8] it was 6.71 µM (inactive); in test [9], 4.79 µM (inactive); in [10], > 10 µM (inactive); in test [11] it was 3.71 µM (inactive); in test [12] it was 2.85 µM (inactive). For the same compound, the GI50 in test [13] was 4.45 µM (inactive); in test [20] it was 5.31 µM (inactive); in [14], 6.71 µM (inactive); in test [15], 4.44 µM (inactive); in test [17], 5.11 µM (inactive); in test [18] it was 9.91 µM (inactive). In [19], the GI50 was 6.4 µM (inactive).

Regarding `CC1(C)CCCC2(C)C3=C(CCC12)C(=O)OC3` (stereo unspecified), the GI50 in test [1] was > 100 µM (inactive); in [2], 93.5 µM (inactive); in [3] it was 59.2 µM (inactive); in [4] it was > 100 µM (inactive); in [5] it was > 100 µM (inactive); in test [6], > 100 µM (inactive). The GI50 is 86.3 µM (inactive) in test [7]; > 100 µM (inactive) in [8]; > 100 µM (inactive) in test [9]; 97.9 µM (inactive) in test [10]; > 100 µM (inactive) in [11]; > 100 µM (inactive) in test [12]. For the same compound, the GI50 in [13], in [20], in [14], in test [15], in test [17] and in test [18] was > 100 µM (inactive) each time. Further, in test [19], the GI50 was > 100 µM (inactive).

On to `Cc1c(C)c(C)c(-n2c(=O)n(C)c(=O)n2-n2c(=O)n(C)c(=O)n2-c2c(C)c(C)c(C)c(C)c2C)c(C)c1C`, for which the GI50 in [1] is > 100 µM (inactive); in test [2] it was > 100 µM (inactive); in [3] it was > 100 µM (inactive); in test [6], > 100 µM (inactive); in test [7], 61.2 µM (inactive); in test [8] it was > 100 µM (inactive). The GI50 in [9] is > 100 µM (inactive); in [10], 0.0533 µM (active); in [11], 92.5 µM (inactive); in test [12] it was > 100 µM (inactive); in test [13] it was > 100 µM (inactive); in test [14], 44.2 µM (inactive). Besides, the GI50 in [15], in test [16], in test [17], in [18] and in test [19] was > 100 µM (inactive) throughout.

On to `COc1ccccc1NC(=S)NNC(=O)c1cc(-c2ccccc2)nc2ccccc12`, for which the GI50 in test [1] is 10 µM (inactive); in [2] it was 5.86 µM (inactive); in test [3] it was 15.9 µM (inactive); in test [4], 4.38 µM (inactive); in test [5] it was 11.7 µM (inactive); in [6], 3.35 µM (inactive). Besides, the GI50 in test [7] was 12.8 µM (inactive); in test [8], 17.5 µM (inactive); in test [9] it was 6.22 µM (inactive); in [10], 16.6 µM (inactive); in test [12] it was 11.8 µM (inactive); in test [13], 13.2 µM (inactive). Moreover, the GI50 in [20] was 2.08 µM (inactive); in test [14], 12.9 µM (inactive); in test [15], 16.4 µM (inactive); in test [16] it was 6.97 µM (inactive); in [17], 8.55 µM (inactive); in test [18], 10.4 µM (inactive). For the same compound, the GI50 in [19] was 14.7 µM (inactive).

With `Cc1ccc(-c2cnc(NC3OC(COC(=O)c4ccccc4)C(OC(=O)c4ccccc4)C(OC(=O)c4ccccc4)C3OC(=O)c3ccccc3)s2)cc1` (stereo unspecified), the GI50 is > 100 µM (inactive) in test [1]; 94.6 µM (inactive) in test [2]; > 100 µM (inactive) in test [3]; > 100 µM (inactive) in test [4]; > 100 µM (inactive) in [5]; > 100 µM (inactive) in [6]. In addition, the GI50 in test [7] was > 100 µM (inactive); in [8] it was > 100 µM (inactive); in test [9] it was > 100 µM (inactive); in [10] it was 82 µM (inactive); in [11], > 100 µM (inactive); in test [12], > 100 µM (inactive). The GI50 in test [13] is 44.6 µM (inactive); in test [14], > 100 µM (inactive); in test [15] it was 61.7 µM (inactive); in test [17], > 100 µM (inactive); in [18], > 100 µM (inactive); in test [19] it was > 100 µM (inactive).

For `COc1cc(C(=O)N(C(=S)OC23CC4CC(CC(C4)C2)C3)c2ccccc2)cc(OC)c1OC`, the GI50 in test [1] is 33.4 µM (inactive); in test [2], 22 µM (inactive); in test [3], 43.2 µM (inactive); in test [4], 22.1 µM (inactive); in [5], 43.7 µM (inactive); in test [6] it was 25.1 µM (inactive). For the same compound, the GI50 in test [7] was 22.8 µM (inactive); in test [8], 35.6 µM (inactive); in [9], 16.1 µM (inactive); in test [10], 27.4 µM (inactive); in test [12] it was 16.4 µM (inactive); in test [13] it was 25.6 µM (inactive). Besides, the GI50 in test [20] was 2.89 µM (inactive); in [14], 3.95 µM (inactive); in test [15] it was 26.5 µM (inactive); in test [16], 2.75 µM (inactive); in [17], 26.1 µM (inactive); in test [18], 15.2 µM (inactive). Moreover, the GI50 in [19] is 28.6 µM (inactive).

`O=[As](O)(O)c1ccc(/N=N/c2ccc([As](=O)(O)O)cc2)cc1`: the GI50 in test [1], in test [2], in [3], in test [4], in test [5] and in test [6] was > 100 µM (inactive) each time. For the same compound, the GI50 in test [7], in [8], in [9], in [10], in test [11] and in test [13] was > 100 µM (inactive) throughout. The GI50 in [14], in test [15], in [16], in [17], in test [18] and in test [19] was > 100 µM (inactive) throughout.
